Results on 20 compounds are retold here after US11045455B2, “Azetidine derivative, preparation method therefor, and use thereof” (SICHUAN KELUN-BIOTECH BIOPHARMACEUTICAL CO., LTD., priority 2016, dated 2021).

Counter-ions that a name gives are not always drawn. Like-named read-outs stand apart in the source and are kept apart here. Where only a bound is given, the exact number is not on record here.

In one data set the target is JAK1 (Homo sapiens (Human), UniProt P23458). Kind of data set: JAK1 enzymatic inhibition assay (ADP-Glo luminescence). Type of data set: biochemical. Background: ADP-Glo turns the ADP formed in a reaction into a luminescent signal.
The target of a further data set is JAK2 (Homo sapiens (Human), UniProt O60674). The data set can be described thus: JAK2 enzymatic inhibition assay (ADP-Glo luminescence). In kind it is biochemical.
Chain of JAK2 (O60674 whole entry): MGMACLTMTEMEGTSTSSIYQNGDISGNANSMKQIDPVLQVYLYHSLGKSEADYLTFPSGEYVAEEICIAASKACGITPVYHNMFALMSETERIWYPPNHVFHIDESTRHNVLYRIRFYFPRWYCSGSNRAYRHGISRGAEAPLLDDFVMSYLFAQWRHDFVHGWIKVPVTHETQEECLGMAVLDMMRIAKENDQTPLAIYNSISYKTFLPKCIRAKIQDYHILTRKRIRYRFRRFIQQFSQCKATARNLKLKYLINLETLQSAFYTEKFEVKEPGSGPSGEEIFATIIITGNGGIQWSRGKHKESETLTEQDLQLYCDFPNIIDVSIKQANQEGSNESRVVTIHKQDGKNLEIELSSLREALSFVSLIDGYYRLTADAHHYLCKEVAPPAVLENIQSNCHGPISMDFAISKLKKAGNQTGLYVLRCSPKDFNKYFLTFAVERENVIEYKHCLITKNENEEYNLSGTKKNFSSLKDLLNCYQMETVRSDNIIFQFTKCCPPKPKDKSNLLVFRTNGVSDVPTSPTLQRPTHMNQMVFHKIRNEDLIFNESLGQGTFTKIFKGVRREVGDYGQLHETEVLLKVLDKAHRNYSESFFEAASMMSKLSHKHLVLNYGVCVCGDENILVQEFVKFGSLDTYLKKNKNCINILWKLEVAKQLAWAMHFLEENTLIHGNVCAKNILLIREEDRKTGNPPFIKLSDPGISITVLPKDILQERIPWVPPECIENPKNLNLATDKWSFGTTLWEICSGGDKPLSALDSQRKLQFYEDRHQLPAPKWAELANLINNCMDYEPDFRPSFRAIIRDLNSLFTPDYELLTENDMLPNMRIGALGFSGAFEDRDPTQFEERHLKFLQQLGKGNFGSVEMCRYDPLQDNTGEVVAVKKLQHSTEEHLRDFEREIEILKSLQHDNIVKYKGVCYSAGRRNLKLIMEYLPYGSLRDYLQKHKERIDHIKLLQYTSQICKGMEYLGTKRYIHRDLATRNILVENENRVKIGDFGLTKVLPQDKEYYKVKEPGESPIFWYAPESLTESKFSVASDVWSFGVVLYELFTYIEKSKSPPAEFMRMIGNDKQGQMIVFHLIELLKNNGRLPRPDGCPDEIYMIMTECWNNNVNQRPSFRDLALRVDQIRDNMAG
The target in a further data set is hERG potassium channel (Homo sapiens (Human), UniProt Q12809). The data set can be described thus: Predictor hERG Fluorescence Polarization Assay. Type of data set: binding. The settings on record: tested at 3, 10 and 30 μM. The protocol: Experimental Example 2: Safety Test
Chain of hERG potassium channel (Q12809 whole entry): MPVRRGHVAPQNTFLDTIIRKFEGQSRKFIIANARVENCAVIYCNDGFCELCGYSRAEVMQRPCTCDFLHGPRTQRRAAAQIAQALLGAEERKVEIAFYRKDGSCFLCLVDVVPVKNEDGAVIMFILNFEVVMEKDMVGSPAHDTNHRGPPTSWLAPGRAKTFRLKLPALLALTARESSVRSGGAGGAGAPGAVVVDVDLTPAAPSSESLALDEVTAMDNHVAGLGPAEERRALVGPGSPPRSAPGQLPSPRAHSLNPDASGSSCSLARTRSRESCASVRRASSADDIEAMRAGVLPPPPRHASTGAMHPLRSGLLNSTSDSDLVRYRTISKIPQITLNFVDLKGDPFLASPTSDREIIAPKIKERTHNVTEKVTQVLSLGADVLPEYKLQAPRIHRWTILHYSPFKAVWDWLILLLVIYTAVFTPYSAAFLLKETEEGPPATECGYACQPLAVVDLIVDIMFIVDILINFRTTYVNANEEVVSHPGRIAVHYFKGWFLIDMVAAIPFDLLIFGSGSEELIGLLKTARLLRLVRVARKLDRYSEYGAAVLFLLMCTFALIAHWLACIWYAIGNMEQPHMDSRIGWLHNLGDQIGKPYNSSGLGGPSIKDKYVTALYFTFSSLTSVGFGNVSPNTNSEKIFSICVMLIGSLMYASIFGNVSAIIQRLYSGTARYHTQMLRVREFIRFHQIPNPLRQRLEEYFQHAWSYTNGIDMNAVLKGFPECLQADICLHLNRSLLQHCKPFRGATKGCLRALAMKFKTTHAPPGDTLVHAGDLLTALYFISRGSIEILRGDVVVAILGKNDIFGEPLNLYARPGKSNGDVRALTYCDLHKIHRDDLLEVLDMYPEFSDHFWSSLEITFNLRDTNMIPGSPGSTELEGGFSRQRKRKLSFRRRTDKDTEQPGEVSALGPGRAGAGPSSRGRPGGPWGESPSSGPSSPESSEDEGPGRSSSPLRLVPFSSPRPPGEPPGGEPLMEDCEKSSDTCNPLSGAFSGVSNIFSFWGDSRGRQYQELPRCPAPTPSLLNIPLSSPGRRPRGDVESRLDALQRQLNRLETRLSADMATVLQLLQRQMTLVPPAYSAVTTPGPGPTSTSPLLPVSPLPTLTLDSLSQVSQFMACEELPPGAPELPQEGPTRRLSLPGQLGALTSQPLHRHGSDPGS
The effect of test compounds on hERG potassium channel were determined using Predictor™ hERG Fluorescence Polarization Assay at concentrations of 3, 10, and 30 μM.

In another data set the target is JAK3 (Homo sapiens (Human), UniProt P52333). The data set can be described thus: JAK3 enzymatic inhibition assay (ADP-Glo luminescence). Type of data set: biochemical. From the text: (§1) Experimental Example 1: JAK1, JAK2, JAK3 and TYK2 Enzymatic Inhibition Assay
Chain of JAK3 (P52333 whole entry): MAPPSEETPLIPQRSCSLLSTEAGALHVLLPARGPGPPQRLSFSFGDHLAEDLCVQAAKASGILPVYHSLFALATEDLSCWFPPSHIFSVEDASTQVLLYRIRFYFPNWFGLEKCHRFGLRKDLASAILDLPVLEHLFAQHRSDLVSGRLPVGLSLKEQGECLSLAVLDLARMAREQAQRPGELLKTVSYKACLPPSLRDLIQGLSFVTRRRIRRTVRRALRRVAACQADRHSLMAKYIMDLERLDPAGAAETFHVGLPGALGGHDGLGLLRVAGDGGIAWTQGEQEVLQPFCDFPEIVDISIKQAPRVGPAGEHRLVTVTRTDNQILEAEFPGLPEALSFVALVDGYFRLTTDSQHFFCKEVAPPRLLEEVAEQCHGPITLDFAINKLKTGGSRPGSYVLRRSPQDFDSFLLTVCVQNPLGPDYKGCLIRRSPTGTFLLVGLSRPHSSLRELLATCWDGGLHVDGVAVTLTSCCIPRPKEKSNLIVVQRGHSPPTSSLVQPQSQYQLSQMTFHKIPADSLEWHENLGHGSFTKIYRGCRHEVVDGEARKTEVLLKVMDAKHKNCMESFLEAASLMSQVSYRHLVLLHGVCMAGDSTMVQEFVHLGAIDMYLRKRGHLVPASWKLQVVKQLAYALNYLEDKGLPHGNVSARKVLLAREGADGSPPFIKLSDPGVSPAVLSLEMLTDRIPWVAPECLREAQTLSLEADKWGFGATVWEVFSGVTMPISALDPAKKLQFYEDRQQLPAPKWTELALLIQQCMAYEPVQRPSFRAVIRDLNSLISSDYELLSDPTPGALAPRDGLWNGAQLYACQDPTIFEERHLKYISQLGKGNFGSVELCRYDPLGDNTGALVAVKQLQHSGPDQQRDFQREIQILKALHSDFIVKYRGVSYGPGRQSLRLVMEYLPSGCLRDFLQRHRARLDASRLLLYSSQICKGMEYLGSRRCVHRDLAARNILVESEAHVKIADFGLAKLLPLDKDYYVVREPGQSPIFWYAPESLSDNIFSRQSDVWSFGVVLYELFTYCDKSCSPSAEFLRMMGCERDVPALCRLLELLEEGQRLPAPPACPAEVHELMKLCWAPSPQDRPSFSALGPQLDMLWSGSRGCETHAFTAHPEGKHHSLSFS
For the next data set, the target named is TYK2 (Homo sapiens (Human), UniProt P29597). The data set can be described thus: TYK2 enzymatic inhibition assay (LanthaScreen TR-FRET). Type of data set: biochemical. The protocol: as §1
Chain of TYK2 (P29597 whole entry): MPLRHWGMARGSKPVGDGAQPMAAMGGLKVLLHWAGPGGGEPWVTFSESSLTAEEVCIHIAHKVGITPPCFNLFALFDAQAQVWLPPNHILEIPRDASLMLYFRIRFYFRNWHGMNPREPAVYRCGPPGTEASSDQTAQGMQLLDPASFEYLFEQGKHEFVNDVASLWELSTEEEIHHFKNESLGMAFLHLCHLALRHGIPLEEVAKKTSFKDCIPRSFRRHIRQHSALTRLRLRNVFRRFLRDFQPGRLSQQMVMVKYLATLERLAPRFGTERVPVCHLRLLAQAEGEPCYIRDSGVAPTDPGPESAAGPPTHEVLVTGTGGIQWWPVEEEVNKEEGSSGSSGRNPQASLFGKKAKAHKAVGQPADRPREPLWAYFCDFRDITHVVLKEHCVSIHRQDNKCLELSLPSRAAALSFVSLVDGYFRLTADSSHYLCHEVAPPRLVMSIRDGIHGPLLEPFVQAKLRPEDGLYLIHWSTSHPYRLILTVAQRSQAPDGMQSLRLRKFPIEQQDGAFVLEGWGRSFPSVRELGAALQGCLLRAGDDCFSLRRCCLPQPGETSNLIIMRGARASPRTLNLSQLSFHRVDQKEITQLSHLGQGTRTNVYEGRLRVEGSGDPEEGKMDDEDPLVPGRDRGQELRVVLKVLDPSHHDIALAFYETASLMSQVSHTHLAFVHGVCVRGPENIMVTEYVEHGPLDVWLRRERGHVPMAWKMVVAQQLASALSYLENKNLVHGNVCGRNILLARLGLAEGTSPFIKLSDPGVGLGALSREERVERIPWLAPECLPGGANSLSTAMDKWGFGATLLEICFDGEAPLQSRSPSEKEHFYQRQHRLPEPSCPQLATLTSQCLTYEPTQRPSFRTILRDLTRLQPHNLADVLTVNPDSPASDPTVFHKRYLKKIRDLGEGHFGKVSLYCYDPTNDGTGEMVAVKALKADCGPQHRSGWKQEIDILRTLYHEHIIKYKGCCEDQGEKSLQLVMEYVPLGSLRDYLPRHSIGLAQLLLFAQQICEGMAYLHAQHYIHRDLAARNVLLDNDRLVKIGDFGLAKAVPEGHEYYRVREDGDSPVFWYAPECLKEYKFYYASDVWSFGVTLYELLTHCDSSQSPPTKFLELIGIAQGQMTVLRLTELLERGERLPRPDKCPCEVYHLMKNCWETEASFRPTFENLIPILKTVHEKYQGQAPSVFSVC
As for the TYK2 enzyme, Tb-anti-pSTAT1 was added, and incubation at room temperature was performed.

The nature of data set [1]: Pharmacokinetic study in rats, intravenous (IV) administration. The settings on record: male, SD, rat, plasma, IV administration at 1 mg/kg, 0-24 h. Type of data set: in vivo. On the procedure: Experimental Example 3: Pharmacokinetic Studies
To study the pharmacokinetic characteristics of test compounds, the test compounds were administrated by intravenous (IV) and gavage (PO) routes to male SD rats. The dosage for IV administration was 1 mg/kg, and that for PO administration was 0.5-5 mg/kg. The vehicle is 10% DMSO: 10% solutol: 80% physiological saline, or 5% DMSO: 5% solutol: 90% physiological saline, or 10% DMSO: 60% PEG: 30% physiological saline. Blood was collected at various time points after administration. Plasma samples were analyzed by LC-MS/MS after protein precipitation process with acetonitrile.

The next data set has as its target CYP1A2 (Homo sapiens (Human), UniProt P05177). Kind of data set: CYP450 enzyme test, P450-Glo screening system, CYP1A2. The settings on record: read-out: IC50 (μM) CYP1A2. In kind it is in vitro ADME. From the text: (§2) CYP450 is the most important enzymatic system in drug metabolism. The enzymes involved in the metabolism interact with a drug, and mainly include CYP1A2, CYP2D6 and CYP3A4. In the CYP450 enzyme test, P450-Glo™ CYP1A2 screening system was employed to determine the inhibitory activity of compounds on CYP1A2 and CYP3A4. The Vivid® CYP2D6 Cyan screening kit was employed to determine the inhibitory activity of test compounds on CYP2D6.

Another data set concerns the target CYP2D6 (Homo sapiens (Human), UniProt P10635). The data set can be described thus: CYP450 enzyme test, Vivid CYP2D6 Cyan screening kit. In kind it is in vitro ADME.
Text: as §2

For a further data set, the target named is CYP3A4 (Homo sapiens (Human), UniProt P08684). Kind of data set: CYP450 enzyme test, P450-Glo screening system, CYP3A4. In kind it is in vitro ADME.
Text: as §2

Chain of CYP1A2 (P05177 whole entry): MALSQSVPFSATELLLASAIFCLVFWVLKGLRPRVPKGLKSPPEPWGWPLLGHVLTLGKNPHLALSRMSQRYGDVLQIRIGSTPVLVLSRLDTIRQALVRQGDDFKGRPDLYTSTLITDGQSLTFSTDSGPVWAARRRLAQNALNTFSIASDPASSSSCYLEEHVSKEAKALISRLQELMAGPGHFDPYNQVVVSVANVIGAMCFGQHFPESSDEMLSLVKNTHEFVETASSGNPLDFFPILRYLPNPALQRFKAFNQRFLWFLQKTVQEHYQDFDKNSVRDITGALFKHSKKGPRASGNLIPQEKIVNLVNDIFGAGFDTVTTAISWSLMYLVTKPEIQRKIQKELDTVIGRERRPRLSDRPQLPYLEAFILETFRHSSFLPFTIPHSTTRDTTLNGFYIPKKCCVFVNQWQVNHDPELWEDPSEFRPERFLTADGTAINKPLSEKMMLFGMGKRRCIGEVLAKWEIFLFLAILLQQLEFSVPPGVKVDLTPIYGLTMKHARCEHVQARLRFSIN
Protocol for JAK1: (§3) Test Materials • JAK1, JAK2, JAK3 and TYK2 enzymes were purchased from Life Technologies; and substrate GFP-STAT1 was purchased from Life Technologies.
(§4) Test compounds, enzymes, the substrate and ATP were diluted to the desired concentrations with the assay buffer (40 mM Tris-HCl, pH 7.4, 20 mM MgCl2, 0.1% BSA). The former three were added into a multiple well plate, and incubated at room temperature after being mixed homogeneously. ATP was added to initiate the kinase reaction, and incubation at room temperature was performed. ADP-Glo was added, and incubation at room temperature was performed. The kinase detector reagent was then added, and incubation at room temperature was performed. The luminescence intensity of each test group was detected, and the half maximal inhibitory concentration (IC50) value was calculated.
Protocol for JAK2: as §3, §4

Usually IC50 stands for the concentration needed to halve the response being measured. `CC1(S(=O)(=O)N2CC(CC#N)(n3cc(-c4c(C#N)cnc5[nH]ccc45)cn3)C2)CC1` [Compound 1, 4-(1-(3-(cyanomethyl)-1-((1-methylcyclopropyl)sulfonyl)azetidin-3-yl)-1H-pyrazol-4-yl)-1H-pyrrolo[2,3-b]pyridine-5-carbonitrile]: the IC50 is 0.78 nM at JAK1, 1.98 nM against JAK2 and more than 30000 nM at hERG potassium channel.

Regarding `CS(=O)(=O)N1CC(CC#N)(n2cc(-c3c(C#N)cnc4[nH]ccc34)cn2)C1` [Compound 2, 4-(1-(3-(cyanomethyl)-1-(methylsulfonyl)azetidin-3-yl)-1H-pyrazol-4-yl)-1H-pyrrolo[2,3-b]pyridine-5-carbonitrile], the figures for the IC50 on JAK1, against JAK2 and on hERG potassium channel were 0.17 nM, 0.42 nM and more than 30000 nM, respectively.

For `CCS(=O)(=O)N1CC([C@H](C)C#N)(n2cc(-c3ncnc4[nH]ccc34)cn2)C1` [Compound 12-2, (S)-2-(3-(4-(7H-pyrrolo[2,3-d]pyrimidin-4-yl)-1H-pyrazol-1-yl)-1-(ethylsulfonyl)azetidin-3-yl)propanenitrile], the IC50 against JAK2 is 1.81 nM; against JAK3, 10 to 30 nM; against TYK2, approximately 30 nM; at hERG potassium channel, more than 30000 nM.

Regarding `CCS(=O)(=O)N1CC(CC#N)(n2cc(-c3ccnc4[nH]ccc34)c(C)n2)C1` [Compound 13, 2-(1-(ethylsulfonyl)-3-(3-methyl-4-(1H-pyrrolo[2,3-b]pyridin-4-yl)-1H-pyrazol-1-yl)azetidin-3-yl)acetonitrile], the IC50 is 2.89 nM on JAK1; 1.44 nM against JAK2; more than 30 nM against JAK3; approximately 30 nM on TYK2; more than 30000 nM on hERG potassium channel.

With `CN(C)S(=O)(=O)N1CC(CC#N)(n2cc(-c3ccnc4[nH]ccc34)cn2)C1` [Compound 14, 3-(4-(1H-pyrrolo[2,3-b]pyridin-4-yl)-1H-pyrazol-1-yl)-3-(cyanomethyl)-N,N-dimethylazetidine-1-sulfonamide], the IC50 on JAK1 was 1.3 nM; against JAK2, 0.5 nM; on hERG potassium channel, more than 30000 nM.

Regarding `CCS(=O)(=O)N1CC(CC#N)(n2ccc(-c3c(C#N)cnc4[nH]ccc34)c2)C1` [Compound 17, 4-(1-(3-(cyanomethyl)-1-(ethylsulfonyl)azetidin-3-yl)-1H-pyrrol-3-yl)-1H-pyrrolo[2,3-b]pyridine-5-carbonitrile], the IC50 at JAK1 was 1.13 nM; at JAK2, 0.93 nM; at hERG potassium channel, more than 30000 nM.

On to `CCCS(=O)(=O)N1CC(CC#N)(n2cc(-c3ccnc4[nH]ccc34)cn2)C1` [Compound 23, 2-(3-(4-(1H-pyrrolo[2,3-b]pyridin-4-yl)-1H-pyrazol-1-yl)-1-(propylsulfonyl)azetidin-3-yl)acetonitrile], for which the IC50 against JAK1 was 2.41 nM; against JAK2 it was 0.89 nM; at hERG potassium channel, more than 30000 nM.

Take `N#CCC1(n2cc(-c3ccnc4[nH]ccc34)cn2)CN(S(=O)(=O)C2CC2)C1` [Compound 26, 2-(3-(4-(1H-pyrrolo[2,3-b]pyridin-4-yl)-1H-pyrazol-1-yl)-1-(cyclopropylsulfonyl)azetidin-3-yl)acetonitrile]: the IC50 against JAK1 is 0.46 nM; against JAK2 it was 0.37 nM; on hERG potassium channel, more than 30000 nM.

The term AUC(0-t) denotes exposure summed from dosing to a finite time, without extrapolation to infinity. For `CC1(S(=O)(=O)N2CC(CC#N)(n3cc(-c4ccnc5[nH]ccc45)cn3)C2)CC1` [Compound 31, 2-(3-(4-(1H-pyrrolo[2,3-b]pyridin-4-yl)-1H-pyrazol-1-yl)-1-((1-methylcyclopropyl)sulfonyl)azetidin-3-yl)acetonitrile], the IC50 at JAK1 was 0.72 nM; against JAK2 it was 1.23 nM; on JAK3, 23.6 nM; at hERG potassium channel, more than 30000 nM. In [1], this compound came in with an AUC(0-t) of 540 ng·h/mL.

`CN(C)S(=O)(=O)N1CC(CC#N)(n2cc(-c3c(C#N)cnc4[nH]ccc34)cn2)C1` [Compound 34, 3-(4-(5-cyano-1H-pyrrolo[2,3-b]pyridin-4-yl)-1H-pyrazol-1-yl)-3-(cyanomethyl)-N,N-dimethylazetidine-1-sulfonamide]: the IC50 was 0.8 nM against JAK1 and 1.66 nM against JAK2.

With `N#CCC1(n2cc(-c3ccnc4[nH]ccc34)cn2)CN(S(=O)(=O)N2CCCC2)C1` [Compound 35, 2-(3-(4-(1H-pyrrolo[2,3-b]pyridin-4-yl)-1H-pyrazol-1-yl)-1-(pyrrolidin-1-ylsulfonyl)azetidin-3-yl)acetonitrile], the IC50 was 1.46 nM against JAK1; 1.4 nM on JAK2; more than 30 nM against JAK3; more than 30 nM at TYK2; more than 30000 nM on hERG potassium channel.

For `CCCS(=O)(=O)N1CC(CC#N)(n2cc(-c3c(C#N)cnc4[nH]ccc34)cn2)C1` [Compound 40, 4-(1-(3-(cyanomethyl)-1-(propylsulfonyl)azetidin-3-yl)-1H-pyrazol-4-yl)-1H-pyrrolo[2,3-b]pyridine-5-carbonitrile], the IC50 turned out to be 0.97 nM against JAK1 and 2.24 nM against JAK2.

For the compound `N#CCC1(n2cc(-c3c(C#N)cnc4[nH]ccc34)cn2)CN(S(=O)(=O)CCC(F)(F)F)C1` [Compound 44, 4-(1-(3-(cyanomethyl)-1-((3,3,3-trifluoropropyl)sulfonyl)azetidin-3-yl)-1H-pyrazol-4-yl)-1H-pyrrolo[2,3-b]pyridine-5-carbonitrile], the results for the IC50 against JAK1 and against JAK2 were 1.95 nM and 3.93 nM, respectively.

As to `CCS(=O)(=O)N1CC(C(C)C#N)(n2cc(-c3c(C#N)cnc4[nH]ccc34)cn2)C1` (stereo not shown) [Compound 45, 4-(1-(3-(1-cyanoethyl)-1-(ethylsulfonyl)azetidin-3-yl)-1H-pyrazol-4-yl)-1H-pyrrolo[2,3-b]pyridine-5-carbonitrile], the IC50 against JAK1 was 1.66 nM; at JAK2 it was 3.22 nM.

On to `CCS(=O)(=O)N1CC([C@@H](C)C#N)(n2cc(-c3c(C#N)cnc4[nH]ccc34)cn2)C1` [Compound 45-1, (R)-4-(1-(3-(1-cyanoethyl)-1-(ethylsulfonyl)azetidin-3-yl)-1H-pyrazol-4-yl)-1H-pyrrolo[2,3-b]pyridine-5-carbonitrile], for which the IC50 is 1.65 nM against JAK1; 1.17 nM against JAK2; 10 to 30 nM at JAK3; approximately 30 nM at TYK2; more than 30000 nM on hERG potassium channel.

As for `CCS(=O)(=O)N1CC([C@H](C)C#N)(n2cc(-c3c(C#N)cnc4[nH]ccc34)cn2)C1` [Compound 45-2, (S)-4-(1-(3-(1-cyanoethyl)-1-(ethylsulfonyl)azetidin-3-yl)-1H-pyrazol-4-yl)-1H-pyrrolo[2,3-b]pyridine-5-carbonitrile], the IC50 against JAK1 is 1.85 nM; against JAK2, 1.11 nM; at JAK3, 10 to 30 nM; at TYK2, approximately 30 nM; on hERG potassium channel it was more than 30000 nM.

In the case of `CCS(=O)(=O)N1CC(CC#N)(n2cc(-c3ncnc4[nH]ccc34)c(C)n2)C1` [Compound 49, 2-(1-(ethylsulfonyl)-3-(3-methyl-4-(7H-pyrrolo[2,3-d]pyrimidin-4-yl)-1H-pyrazol-1-yl)azetidin-3-yl)acetonitrile], the half-inhibitory concentration (IC50) was 1.21 nM at JAK2; more than 30000 nM on hERG potassium channel; more than 10 µM on CYP1A2; more than 10 µM at CYP2D6; more than 10 µM against CYP3A4.

As for `CCS(=O)(=O)N1CC(CC#N)(n2cc(-c3c(Cl)cnc4[nH]ccc34)cn2)C1` [Compound 50-HCl, 2-(3-(4-(5-chloro-1H-pyrrolo[2,3-b]pyridin-4-yl)-1H-pyrazol-1-yl)-1-(ethylsulfonyl)azetidin-3-yl)acetonitrile Hydrochloride Salt], at JAK2 (Hydrochloride Salt), the half-inhibitory concentration (IC50) was 0.62 nM.

Consider `CCS(=O)(=O)N1CC(CC#N)(n2cc(-c3c(F)cnc4[nH]ccc34)cn2)C1` [Compound 52-HCl, 2-(1-(ethylsulfonyl)-3-(4-(5-fluoro-1H-pyrrolo[2,3-b]pyridin-4-yl)-1H-pyrazol-1-yl)azetidin-3-yl)acetonitrile Hydrochloride Salt], for which the 50% inhibitory concentration (IC50) on JAK2 (Hydrochloride Salt) came out at 0.35 nM.

Consider `CCS(=O)(=O)N1CC(CC#N)(n2cc(C)c(-c3ncnc4[nH]ccc34)c2)C1` [Compound 56, 2-(1-(ethylsulfonyl)-3-(3-methyl-4-(7H-pyrrolo[2,3-d]pyrimidin-4-yl)-1H-pyrrol-1-yl)azetidin-3-yl)acetonitrile], for which the results for the IC50 at JAK1 and against JAK2 were 3.52 nM and 1.76 nM, respectively.
